From publication PMC10901950, “Neuroprotective and Anti-inflammatory Effects of Rubiscolin-6 Analogs with Proline Surrogates in Position 2” (Neurochemical Research, 2023)
Ends that are not written are not given here.

Tested on: SH-SY5Y cells
Experiment: Cytotoxicity on SH-SY5Y cells (MTT)
Assay type: cell-based, human
Conditions: 10 µM, 24 h
Description: The neuroprotective experiments were performed in an in vitro model of a human neuroblastoma cell line (SH-SY5Y) obtained from the German Collection of Microorganisms and Cell Cultures GmbH (DSMZ) Bank (ACC 209). Cells were cultured in Dulbecco’s Modified Eagle’s Medium: Nutrient Mixture F12 (DMEM:F12) supplemented with 1% antibiotic/antimycotic (Amphotericin B, Penicillin and Streptomycin) (Biowest, Nuaillé, France) and 10% (v/v) Fetal Bovine Serum (FBS) (Biowest, Riverside, MO, USA). The anti-inflammatory experiments were performed in an in vitro model of mouse macrophage-like RAW 264.7 cells, purchased from American Type Culture Collection (ATCC, Manassas, VA, USA). Cells were maintained in DMEM medium (Gibco™, Grand Island, NY) and supplemented with 10% bovine calf serum (BCS) (Gibco™, Grand Island, NY) and 1% penicillin–streptomycin (Sigma-Aldrich, St. Louis, MO, USA). Cell cultures were kept at 37 °C in 5% CO2/humidified air.
Cells were incubated with peptides (0.1–10 µM) for 24 h to assess their cytotoxic activity. […] The resulting absorbance was read in a microplate reader (Biotek, Epoch/2 microplate reader, Winooski, VT, USA) at 570 nm.
Cell metabolic activity (cytotoxicity) was calculated as the percentage of the value obtained for cells incubated with compounds compared to control cells treated with the medium.

YPLDLF-NH2 [analog 6, Tyr-Pro-Leu-Asp-Leu-Phe-NH2]
SH-SY5Y cell viability (cytotoxicity): significantly decreased
